Tests used:
Format in all cases: cell-based
BCRP = target: T1, BCRP (Homo sapiens, UniProt Q9UNQ0); experiment: BCRP inhibition: steady-state mitoxantrone accumulation in BCRP-expressing PLB985 cells (flow cytometry)
T1 construct: expressed in transfected cells; host or cells: PLB985 human myeloid leukemia cells stably expressing BCRP (gift of B. Sarkadi and K. Nemet, Budapest)
Method: (§1) P‐gp and BCRP inhibitory activity was assessed by implementing an intracellular accumulation assay of daunorubicin or mitoxantrone in cells overexpressing P‐gp or BCRP, respectively. In a first run, the effect of compounds 5, 6, 10, 11, and 16 (Figure 2) at 100 μM final concentration was tested (Figure 3). All compounds showing an inhibitory effect of more than 50 % compared with full inhibition by the known inhibitors of P‐gp (verapamil) and BCRP (Ko143) were further processed, and IC50 values were determined (IC50 curves and Hill coefficients are available in Figure S1 and Table S3 in the Supporting Information). […] For P‐gp, nine compounds were classified as inhibitors (5 a, 5 b, 6 a, 10 a, 10 b, 11 b, 16 a, 16 b, 16 c).
(§2) Cell culture: The human myeloid leukemia PLB985 parental and stably expressing BCRP cell lines31 were kindly provided by B. Sarkadi (Institute of Enzymology, Research Centre for Natural Sciences, Budapest, Hungary) and K. Nemet (Creative Cell Ltd., Budapest, Hungary). Both cell lines were cultured in RPMI 1640 supplemented with 10 % FBS and 100 IU mL^−1 of penicillin and streptomycin. The human T‐lymphoblast cell line CCRF VCR1000, overexpressing P‐gp, was obtained by stepwise selection of CCRF‐CEM in vincristine‐containing medium32 and was kindly provided by V. Gekeler (Altana‐Pharma formerly Byk‐Gulden, Konstanz, Germany). CCRF VCR1000 cells were cultured in RPMI 1640 medium containing 20 % FBS and were treated regularly with vincristine (1 μg mL^−1) for about 72 h, followed by centrifugation (300 g, 5 min, RT) and resuspension in normal culture medium. All cell lines were maintained at 37 °C in an atmosphere containing 5 % CO2 with 95 % relative humidity.
(§3) Steady‐state accumulation experiments: For BCRP and P‐gp inhibition studies, the steady‐state accumulation of mitoxantrone (7 μM) and daunorubicin (3 μM), respectively, was performed as previously described.33 Briefly, cells were harvested, pelleted (300 g, 5 min, 4 °C), diluted to a concentration of 12×10^6 cells mL^−1 in HPMI (10 mM Hepes, 120 mM NaCl, 5 mM KCl, 0.4 mM MgCl2, 0.04 mM CaCl2, 10 mM glucose, 10 mM NaHCO3, 5 mM Na2HPO4, pH 7.4 with NaOH) and kept on ice for further processing. For each data point, the cell suspension (25 μL) was preincubated for 5 min at 37 °C with 2 % DMSO (25 μL) in HPMI alone (DMSO control) or containing different concentrations of test compound solutions. Thereafter, cells were preloaded with daunorubicin (50 μL) or mitoxantrone (50 μL) for 30 or 20 min at 37 °C, respectively, to reach a final concentration of 3 or 7 μM, respectively. […] Preloading was stopped by chilling cells on ice for 5 min followed by the addition of 400 μL ice‐cold PBS. Cells were pelleted (300 g, 5 min, 4 °C), the supernatant was discarded, and the cell pellet was resuspended in ice‐cold PBS (150 μL). Until measurement, cells were kept on ice and in the dark. Immediately before cell fluorescence measurement by flow cytometry (BD Accuri C6 and BD FACSCalibur, Becton Dickinson, San Jose, CA, USA; MACSQuant, MiltenyiBiotec GmbH, BergischGladbach, Germany), 50 μL of 4′,6‐diamidin‐2‐phenylindole solution (DAPI, 4 μg mL^−1 in PBS) was added to gate out dead cells. 100 μM verapamil and 1 μM Ko143 were used as positive controls for P‐gp and BCRP inhibition, respectively. […]

P-gp / BCRP = target: T2, P-gp / BCRP (Homo sapiens, UniProt Q9UNQ0); experiment: as above; settings: human, pH 7.4, probe daunorubicin (3 µM) for P-gp; mitoxantrone (7 µM) for BCRP; IC50 P-gp / IC50 BCRP; read-out: selectivity index (SI) P-gp/BCRP
T2 construct: expressed in transfected cells; host or cells: PLB985 human myeloid leukemia cells stably expressing BCRP (gift of B. Sarkadi and K. Nemet, Budapest)
T2 sequence (Q9UNQ0 whole entry): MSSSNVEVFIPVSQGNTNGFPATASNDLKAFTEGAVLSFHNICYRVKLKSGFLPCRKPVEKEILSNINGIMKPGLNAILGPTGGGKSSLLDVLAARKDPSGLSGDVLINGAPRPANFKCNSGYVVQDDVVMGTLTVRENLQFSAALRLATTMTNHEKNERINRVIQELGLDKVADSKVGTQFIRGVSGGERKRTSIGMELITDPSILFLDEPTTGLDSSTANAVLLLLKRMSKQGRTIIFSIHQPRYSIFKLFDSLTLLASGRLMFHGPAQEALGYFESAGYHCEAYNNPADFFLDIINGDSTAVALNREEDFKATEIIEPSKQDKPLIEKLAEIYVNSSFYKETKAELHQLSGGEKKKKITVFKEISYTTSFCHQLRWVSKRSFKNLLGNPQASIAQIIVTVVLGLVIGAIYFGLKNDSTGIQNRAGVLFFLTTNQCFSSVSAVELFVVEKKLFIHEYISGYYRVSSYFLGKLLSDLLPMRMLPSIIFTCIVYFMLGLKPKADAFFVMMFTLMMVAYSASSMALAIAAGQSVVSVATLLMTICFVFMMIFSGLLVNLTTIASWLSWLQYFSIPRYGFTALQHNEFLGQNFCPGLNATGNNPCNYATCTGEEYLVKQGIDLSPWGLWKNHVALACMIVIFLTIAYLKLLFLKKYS
Method: as §1, §2, §3

P-gp = target: T3, P-gp (Homo sapiens, UniProt P08183); experiment: P-gp inhibition: steady-state daunorubicin accumulation in P-gp-overexpressing CCRF VCR1000 cells (flow cytometry)
T3 construct: was obtained by stepwise selection of CCRF‐CEM in vincristine‐containing medium; endogenous in cells; host or cells: CCRF VCR1000 (vincristine-selected subline of CCRF-CEM human T-lymphoblasts; gift of V. Gekeler)
T3 sequence (P08183 whole entry): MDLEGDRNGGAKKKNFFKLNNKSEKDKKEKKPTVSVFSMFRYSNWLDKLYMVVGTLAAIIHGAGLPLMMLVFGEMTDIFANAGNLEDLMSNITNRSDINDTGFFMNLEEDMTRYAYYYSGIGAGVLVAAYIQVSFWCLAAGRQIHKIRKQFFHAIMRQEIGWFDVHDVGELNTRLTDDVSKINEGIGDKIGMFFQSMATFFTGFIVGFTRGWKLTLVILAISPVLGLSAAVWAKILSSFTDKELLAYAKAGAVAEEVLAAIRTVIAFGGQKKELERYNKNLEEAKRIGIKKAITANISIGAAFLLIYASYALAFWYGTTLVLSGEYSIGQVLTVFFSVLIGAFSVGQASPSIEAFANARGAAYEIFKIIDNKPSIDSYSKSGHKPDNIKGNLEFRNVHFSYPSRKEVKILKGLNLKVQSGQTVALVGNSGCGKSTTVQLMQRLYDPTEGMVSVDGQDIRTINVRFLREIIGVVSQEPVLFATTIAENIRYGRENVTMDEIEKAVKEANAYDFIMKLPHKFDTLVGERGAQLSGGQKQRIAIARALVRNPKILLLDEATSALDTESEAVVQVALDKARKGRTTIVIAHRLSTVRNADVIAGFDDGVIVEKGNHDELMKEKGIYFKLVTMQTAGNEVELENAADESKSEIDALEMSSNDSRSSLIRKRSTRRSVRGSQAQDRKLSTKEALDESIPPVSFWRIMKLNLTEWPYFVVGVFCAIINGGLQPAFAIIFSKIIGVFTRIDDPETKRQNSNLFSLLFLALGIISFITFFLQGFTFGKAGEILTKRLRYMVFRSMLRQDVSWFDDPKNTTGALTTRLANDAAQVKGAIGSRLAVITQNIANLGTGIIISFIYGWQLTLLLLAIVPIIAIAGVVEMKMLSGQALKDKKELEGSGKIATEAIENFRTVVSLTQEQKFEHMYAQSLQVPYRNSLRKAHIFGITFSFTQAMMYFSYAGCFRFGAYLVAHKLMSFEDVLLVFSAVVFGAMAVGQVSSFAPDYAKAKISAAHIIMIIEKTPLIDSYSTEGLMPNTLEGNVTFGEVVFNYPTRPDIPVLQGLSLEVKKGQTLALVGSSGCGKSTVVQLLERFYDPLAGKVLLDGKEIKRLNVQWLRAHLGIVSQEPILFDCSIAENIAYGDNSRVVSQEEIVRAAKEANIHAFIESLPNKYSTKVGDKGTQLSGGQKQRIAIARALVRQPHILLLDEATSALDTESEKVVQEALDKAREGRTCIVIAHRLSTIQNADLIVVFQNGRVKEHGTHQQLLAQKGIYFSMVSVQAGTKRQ
Method: as §1, §2, §3

[1] = Hill coefficient of IC50 measurement, mean ± SD of n experiments
[2] = IC50 below 10 μM considered active

T1 sequence (Q9UNQ0 whole entry): as the sequence (Q9UNQ0 whole entry) above

COc1ccc(C(=O)CCc2ccccc2)c(OCCN2CC(=O)N3CCCC3C2=O)c1 (centres unmarked) [Compound 11 b, 2‐(2‐(5‐Methoxy‐2‐(3‐phenylpropanoyl)phenoxy)ethyl)‐hexahydropyrrolo[1,2‐a]pyrazine‐1,4‐dione]
IC50 (BCRP; BCRP IC50, mitoxantrone 7 μM, PLB985 BCRP cells, mean±SD, at least n=3 (11 a n=2)): 2.3 µM | Hill coefficient BCRP (BCRP; [1]): 1.1±0.2 | in vitro classification as BCRP inhibitor (BCRP; [2]): inhibitors | fold lower IC50 value for BCRP than for P-gp (BCRP; ratio IC50 P-gp / IC50 BCRP): 2.7 fold | selectivity ratio (P-gp / BCRP): 2.7 | Hill coefficient P-gp (P-gp; [1]): 1.5±0.1 | in vitro classification as P-gp inhibitor (P-gp; [2]): inhibitors | IC50 (P-gp; daunorubicin 3 μM, CCRF VCR1000 cells, mean±SD, at least n=3): 6.2 ± 0.4 µM

From PMC4949556, “Subtle Structural Differences Trigger Inhibitory Activity of Propafenone Analogues at the Two Polyspecific ABC Transporters: P‐Glycoprotein (P‐gp) and Breast Cancer Resistance Protein (BCRP)” (Chemmedchem, 2016)
